Assay results reported in PubChem BioAssay (NCI).
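Dose response: 5 concentrations. Exposure: 48 h. Format: 96-well plates. Endpoint: linear interpolation; highest concentration if not reached. Definition used: TGI = concentration required for complete inhibition of growth.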

Legend:
Assay in all cases: NCI-60 cell line screen, 48 h
LXFL 529 NSCLC = test system: LXFL 529 NSCLC
DMS 273 small cell lung = test system: DMS 273 small cell lung
OVCAR-5 ovarian = test system: OVCAR-5 ovarian
RXF 393 renal = test system: RXF 393 renal
COLO 205 colon = test system: COLO 205 colon
HOP-62 NSCLC = test system: HOP-62 NSCLC
KM12 colon = test system: KM12 colon
U251 CNS = test system: U251 CNS
HCT-15 colon = test system: HCT-15 colon
SK-OV-3 ovarian = test system: SK-OV-3 ovarian
IGROV1 ovarian = test system: IGROV1 ovarian
KM20L2 colon = test system: KM20L2 colon
SNB-19 CNS = test system: SNB-19 CNS
OVCAR-4 ovarian = test system: OVCAR-4 ovarian
SW-620 colon = test system: SW-620 colon
SNB-75 CNS = test system: SNB-75 CNS
SK-MEL-28 melanoma = test system: SK-MEL-28 melanoma
XF 498 CNS = test system: XF 498 CNS
CAKI-1 renal = test system: CAKI-1 renal
A498 renal = test system: A498 renal
M14 melanoma = test system: M14 melanoma
LOX IMVI melanoma = test system: LOX IMVI melanoma
SF-539 CNS = test system: SF-539 CNS
OVCAR-8 ovarian = test system: OVCAR-8 ovarian
ACHN renal = test system: ACHN renal
MOLT-4 leukemia = test system: MOLT-4 leukemia
HCC-2998 colon = test system: HCC-2998 colon
OVCAR-3 ovarian = test system: OVCAR-3 ovarian
SR leukemia = test system: SR leukemia
A549 NSCLC = test system: A549 NSCLC
UO-31 renal = test system: UO-31 renal
NCI-H23 lung = test system: NCI-H23 lung
TK-10 renal = test system: TK-10 renal
UACC-257 melanoma = test system: UACC-257 melanoma
HOP-92 NSCLC = test system: HOP-92 NSCLC
M19-MEL melanoma = test system: M19-MEL melanoma
SF-295 CNS = test system: SF-295 CNS
SK-MEL-5 melanoma = test system: SK-MEL-5 melanoma
CCRF-CEM leukemia = test system: CCRF-CEM leukemia
NCI-H460 lung = test system: NCI-H460 lung
HCT-116 colon = test system: HCT-116 colon
EKVX NSCLC = test system: EKVX NSCLC
UACC-62 melanoma = test system: UACC-62 melanoma
K-562 leukemia = test system: K-562 leukemia
HOP-18 NSCLC = test system: HOP-18 NSCLC
DLD-1 colon = test system: DLD-1 colon
SNB-78 CNS = test system: SNB-78 CNS
HL-60(TB) leukemia = test system: HL-60(TB) leukemia
NCI-H226 lung = test system: NCI-H226 lung
786-0 renal = test system: 786-0 renal
HT29 colon = test system: HT29 colon
RPMI-8226 leukemia = test system: RPMI-8226 leukemia
SF-268 CNS = test system: SF-268 CNS

SMILES: Cn1cnc([N+](=O)[O-])c1Sc1nc2ccc([N+](=O)[O-])cc2[nH]1
- TGI (LXFL 529 NSCLC): 26.9 µM
- TGI (DMS 273 small cell lung): 4.68 µM
- TGI (OVCAR-5 ovarian): > 100 µM
- TGI (RXF 393 renal): 40.1 µM
- TGI (COLO 205 colon): 23.4 µM
- TGI (HOP-62 NSCLC): > 100 µM
- TGI (KM12 colon): > 100 µM
- TGI (U251 CNS): > 100 µM
- TGI (HCT-15 colon): 38.8 µM
- TGI (SK-OV-3 ovarian): 62.5 µM
- TGI (IGROV1 ovarian): 58.6 µM
- TGI (KM20L2 colon): > 100 µM
- TGI (SNB-19 CNS): > 100 µM
- TGI (OVCAR-4 ovarian): > 100 µM
- TGI (SW-620 colon): > 100 µM
- TGI (SNB-75 CNS): 81.8 µM
- TGI (SK-MEL-28 melanoma): 37.6 µM
- TGI (XF 498 CNS): 28.9 µM
- TGI (CAKI-1 renal): 26.7 µM
- TGI (A498 renal): 83.4 µM
- TGI (M14 melanoma): > 100 µM
- TGI (LOX IMVI melanoma): 60.1 µM
- TGI (SF-539 CNS): 44 µM
- TGI (OVCAR-8 ovarian): 39.2 µM
- TGI (ACHN renal): > 100 µM
- TGI (MOLT-4 leukemia): 47.7 µM
- TGI (HCC-2998 colon): 29.2 µM
- TGI (OVCAR-3 ovarian): > 100 µM
- TGI (SR leukemia): 41.5 µM
- TGI (A549 NSCLC): > 100 µM
- TGI (UO-31 renal): 67.6 µM
- TGI (NCI-H23 lung): 72 µM
- TGI (TK-10 renal): 59.3 µM
- TGI (UACC-257 melanoma): 33.5 µM
- TGI (HOP-92 NSCLC): 39.8 µM
- TGI (M19-MEL melanoma): 44.5 µM
- TGI (SF-295 CNS): > 100 µM
- TGI (SK-MEL-5 melanoma): 30.6 µM
- TGI (CCRF-CEM leukemia): 81.1 µM
- TGI (NCI-H460 lung): > 100 µM
- TGI (HCT-116 colon): 57.8 µM
- TGI (EKVX NSCLC): 46.7 µM
- TGI (UACC-62 melanoma): 28.2 µM
- TGI (K-562 leukemia): 69.2 µM
- TGI (HOP-18 NSCLC): > 100 µM
- TGI (DLD-1 colon): 32.6 µM
- TGI (SNB-78 CNS): 81 µM
- TGI (HL-60(TB) leukemia): > 100 µM
- TGI (NCI-H226 lung): > 100 µM
- TGI (786-0 renal): > 100 µM
- TGI (HT29 colon): > 100 µM
- TGI (RPMI-8226 leukemia): 67.5 µM
- TGI (SF-268 CNS): 53.1 µM
